# Measured values: US20210353579A1, “HIGH PENETRATION COMPOSITIONS AND USES THEREOF” (Techfields Pharma Co., Ltd., priority 2006, published 2021)
# Legend:
# [1] = system: normal rats; assay: Blood glucose in normal rats, oral with food; type: in vivo, rat; settings: for Blood glucose, Normal rats, Average: average second to fifth week, equal to 20 mg/kg of NSAIAs every day; for Blood glucose, Normal rats, Baseline: equal to 20 mg/kg of NSAIAs
# [2] = system: rats (SLAC/GK, type 2 diabetes); assay: Blood glucose in type 2 diabetes rats, transdermal; type: in vivo, rat; settings: diabetic rats (SLAC/GK); for Blood glucose, Average: average second to fifth week, no fasting, equal to 20 mg/kg of NSAIAs once per day for 5 weeks; for Blood glucose, Baseline: equal to 20 mg/kg of NSAIAs once per day
# Description: (§1) HPPs lower blood glucose level in rat models (SLAC/GK, type 2 diabetes, n=7). 50% acetone solution of diethylaminoethyl acetylsalicylate.acetylsalicylic acid salt (P-1, in acetone); 4-acetamidophenyl salicylyldimethylaminobutyrate.HCl (P-6), diethylaminoethyl 5-(2,4-difluorophenyl) acetylsalicylate.5-(2,4-difluorophenyl).acetylsalicylic acid salt (P-8), diethylaminoethyl salicylsalicylate.AcOH (P-9), diethylaminoethyl salicylate.AcOH (P-10), diethylaminoethyl 5-acetamido-acetylsalicylate (P-58), diethylaminoethyl acetylsalicylsalicylate.acetylsalicylsalicylic acid salt (P-59), diethylaminoethyl acetylsalicylsalicylate.acetylsalicylsalicylsalicylic acid salt (P-60) (equal to of 20 mg/kg of NSAIAs) are administered transdermally to the backs (about 1.5 cm^2) of rats (fur was shaved) once per day (at 8 am) for 5 weeks. The blood glucose levels are measured once every 3 days at 3 pm (no fasting) from the second week to the fifth week (Table 24). The blood lipid levels are measured at the end of the fifth week (Table 25).
# [3] = system: rats (SLAC/GK, type 2 diabetes); assay: Blood lipid in type 2 diabetes rats, transdermal; type: in vivo, rat; settings: for Cholesterol (HDL), Baseline / Cholesterol (total), Baseline / Triglycerides, Baseline: equal to 20 mg/kg of NSAIAs; for Cholesterol (HDL), Average / Cholesterol (total), Average / Triglycerides, Average: end of the fifth week, equal to 20 mg/kg of NSAIAs once per day
# Description: as §1
# [4] = system: normal rats; assay: Blood glucose in normal rats, transdermal; type: in vivo, rat; settings: for Blood glucose, Average: normal rats (second Average line of Table 24), average second to fifth week, equal to 20 mg/kg of NSAIAs once per day; for Blood glucose, Baseline: normal rats (second Baseline line of Table 24), equal to 20 mg/kg of NSAIAs
# Description: as §1, with “25). […]” for “25).”
# [5] = system: rats; assay: Antipyretic activity, E. coli suspension as pyrogen; type: in vivo; settings: in °C (unit assumed)
# Protocol: Rats are administered with sterilized E. coli suspension as a pyrogen. Each group of rats are administered with a prodrug compounds or parent compounds at a dosage specified below. The prodrug compounds are administered either orally or transdermally. The parent compounds are administered orally.
# [6] = system: rat; settings: rats;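 further: acute toxicity in rats expressed as LD50, determined for both prodrugs and their parent compounds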
# Protocol: The acute toxicity of the prodrug compounds and parent compounds are measured by LD50 of rat.
# [7] = Plasma levels after transdermal administration to hairless mice; type: in vivo; settings: mouse, in vivo
# Protocol: Tested compounds (20% solution or suspension in 1 mL isopropanol) are administered transdermally to the skin of intact hairless mice. The plasma levels of the parent compounds are determined by HPLC.
# [8] = system: human skin tissue; settings: pH 7.4
# [9] = system: mice (SLAC:NOD-IDDM, type 1 diabetes); assay: Blood glucose in type 1 diabetes mice, transdermal; type: in vivo, mouse; settings: for Blood glucose, Average: average fourth to seventh week, no fasting, equal to 30 mg/kg of NSAIAs once per day for 7 weeks; for Blood glucose, Baseline: equal to 30 mg/kg of NSAIAs
# Description: The pro-drugs in this invention lower blood glucose levels in mouse models (SLAC:NOD-IDDM, type 1 diabetes, n=7). 50% acetone solution of diethylaminoethyl acetylsalicylate.acetylsalicylic acid salt (P-1, in acetone); 4-acetamidophenyl salicylyldimethylaminobutyrate.HCl (P-6), diethylaminoethyl 5-(2,4-difluorophenyl) acetylsalicylate.5-(2,4-difluorophenyl) acetylsalicylic acid salt (P-8), diethylaminoethyl salicylsalicylate.AcOH (P-9), diethylaminoethyl salicylate.AcOH (P-10), diethylaminoethyl 5-acetamido-acetylsalicylate (P-58), diethylaminoethyl acetylsalicylsalicylate. acetylsalicylsalicylic acid salt (P-59), diethylaminoethyl acetylsalicylsalicylate. acetylsalicylsalicylsalicylic acid salt (P-60) (equal to of 30 mg/kg of NSAIAs) were administered transdermally to the backs (about 1.5 cm^2) of mice (fur was shaved) once per day (at 8 am) for 7 weeks. The blood glucose levels were measured once every 3 days at 3 pm (no fasting) from the fourth week to the seventh week.
# [10] = system: rats (SLAC/GK, type 2 diabetes); assay: Blood lipid in type 2 diabetes rats, oral with food; type: in vivo, rat; settings: for Cholesterol (HDL), Baseline / Cholesterol (total), Baseline / Triglycerides, Baseline: equal to 20 mg/kg of NSAIAs; for Cholesterol (HDL), Average / Cholesterol (total), Average / Triglycerides, Average: end of the fifth week, equal to 20 mg/kg of NSAIAs every day
# Description: (§2) 20% acetone solution of diethylaminoethyl acetylsalicylate.acetylsalicylic acid salt (P-1, in acetone); 4-acetamidophenyl salicylyldimethylaminobutyrate.HCl (P-6), diethylaminoethyl 5-(2,4-difluorophenyl) acetylsalicylate.5-(2,4-difluorophenyl) acetylsalicylic acid salt (P-8), diethylaminoethyl salicylsalicylate.AcOH (P-9), diethylaminoethyl salicylate.AcOH (P-10), diethylaminoethyl 5-acetamido-acetylsalicylate (P-58), diethylaminoethyl acetylsalicylsalicylate. acetylsalicylsalicylic acid salt (P-59), diethylaminoethyl acetylsalicylsalicylate. acetylsalicylsalicylsalicylic acid salt (P-60) (equal to of 20 mg/kg of NSAIAs) were mixed with food and were orally administered to the rats (SLAC/GK, type 2 diabetes, n=7) with food every day for 5 weeks. The blood glucose levels were measured once every 3 days at 3 pm (no fasting) from the second week to the fifth week. The blood lipid levels were measured at the end of the fifth week.
# [11] = system: mice; assay: Analgesic activity, acetic acid writhing; type: in vivo; settings: 30 min before acetic acid
# Protocol: The prodrug compounds are administered either transdermally or orally. The parent compounds are administered orally. The number of writhing that occurred when mice are administered the acetic acid solution are counted, and the rate of inhibition based on the control group which was not pretreated with any test compounds is calculated. […] The A group is the control group.
# [12] = system: mice; assay: Analgesic activity, D'Amour-Smith method (tail heat, pain threshold); type: in vivo; settings: 200 mg/kg transdermally vs 200 mg/kg diflunisal orally
# Protocol: After the tested compounds are administered (the dosages for each test compounds are specified in FIG. 3, prodrug compounds are administered orally and transdermally respectively in different groups, while parent compounds are administered orally) to a group of mice (six mice every group), the tails of mice are exposed to heat and the prolongation time of pain threshold is determined. […] The prodrug compounds show similar analgesic activities when the same dosages are administered orally or transdermally. (FIG. 3)
# [13] = system: rats (SLAC/GK, type 2 diabetes); assay: Blood glucose in type 2 diabetes rats, oral with food; type: in vivo, rat; settings: for Blood glucose, Diabetic rats, Average: average second to fifth week, no fasting, equal to 20 mg/kg of NSAIAs every day for 5 weeks; for Blood glucose, Diabetic rats, Baseline: equal to 20 mg/kg of NSAIAs
# Description: as §2
SMILES,"Blood glucose, Normal rats, Average [1] [mmol/L]","Blood glucose, Normal rats, Baseline [1] [mmol/L]","Blood glucose, Average [2] [mmol/L]","Blood glucose, Baseline [2] [mmol/L]","Cholesterol (HDL), Baseline [3] [mmol/L]","Cholesterol (total), Baseline [3] [mmol/L]","Triglycerides, Baseline [3] [mmol/L]","Cholesterol (HDL), Average [3] [mmol/L]","Cholesterol (total), Average [3] [mmol/L]","Triglycerides, Average [3] [mmol/L]","Blood glucose, Average [4] [mmol/L]","Blood glucose, Baseline [4] [mmol/L]","body temperature, t = 0 min ([5]; 100 mg/kg transdermally)","body temperature, t = 90 min ([5]; 100 mg/kg transdermally)","body temperature, t = 180 min ([5]; 100 mg/kg transdermally)","body temperature, t = 270 min ([5]; 100 mg/kg transdermally)","body temperature, t = 0 min ([5]; 150 mg/kg transdermally)","body temperature, t = 90 min ([5]; 150 mg/kg transdermally)","body temperature, t = 180 min ([5]; 150 mg/kg transdermally)","body temperature, t = 270 min ([5]; 150 mg/kg transdermally)",further results
CC(=O)O.CCN(CC)CCOC(=O)c1ccccc1O [diethylaminoethyl salicylate.AcOH],6.9 ± 1,6.7 ± 1,8.2 ± 1,15.8 ± 3,1.6 ± 0.2,7.1 ± 0.5,5.6 ± 0.6,1.5 ± 0.1,4.9 ± 0.4,2.5 ± 0.2,6.9 ± 1,6.8 ± 1,37.28 ± 0.06,36.85 ± 0.06,36.88 ± 0.08,36.86 ± 0.07,37.26 ± 0.05,36.55 ± 0.05,36.60 ± 0.07,36.65 ± 0.05,"LD50 of HPP [6]: 1600 mg/kg; Peak plasma concentration of parent compound after prodrug compound [7]: 40 mg/L; t, time to peak plasma level of parent compound after prodrug compound [7]: 30 min; In vitro penetration rate (apparent flux), prodrug compounds [8]: 60 μg/cm^2/h; Blood glucose, Average [9]: 8.2 ± 1 mmol/L; Blood glucose, Baseline [9]: 25.8 ± 3 mmol/L; Cholesterol (HDL), Baseline [10]: 1.6 ± 0.2 mmol/L; Cholesterol (total), Baseline [10]: 7.6 ± 0.5 mmol/L; Triglycerides, Baseline [10]: 5.7 ± 0.6 mmol/L; Cholesterol (HDL), Average [10]: 1.7 ± 0.1 mmol/L; Cholesterol (total), Average [10]: 5.2 ± 0.5 mmol/L; Triglycerides, Average [10]: 2.6 ± 0.2 mmol/L; % (rate of writhing inhibition) ([11]; 50 mg/kg transdermally): 60%; No. of Writhing ([11]; 50 mg/kg transdermally): 14.0; % (rate of writhing inhibition) ([11]; 100 mg/kg transdermally): 66%; No. of Writhing ([11]; 100 mg/kg transdermally): 11.9; analgesic activity, prolongation time of pain threshold of mice tails [12]: stronger analgesic activity; Blood glucose, Diabetic rats, Average [13]: 7.8 ± 1 mmol/L; Blood glucose, Diabetic rats, Baseline [13]: 15.6 ± 3 mmol/L"
CC(=O)O.CCN(CC)CCOC(=O)c1ccccc1OC(=O)c1ccccc1O [diethylaminoethyl salicylsalicylate.AcOH],6.6 ± 1,6.3 ± 1,8.4 ± 1,16.5 ± 4,1.3 ± 0.1,7.7 ± 0.5,5.3 ± 0.5,1.4 ± 0.2,4.8 ± 0.4,2.4 ± 0.2,6.7 ± 1,6.5 ± 1,37.28 ± 0.06,36.75 ± 0.06,36.78 ± 0.08,36.80 ± 0.07,37.26 ± 0.05,36.45 ± 0.05,36.40 ± 0.07,36.50 ± 0.05,"LD50 of HPP [6]: 2000 mg/kg; Peak plasma concentration of parent compound after prodrug compound [7]: 40 mg/L; t, time to peak plasma level of parent compound after prodrug compound [7]: 30 min; In vitro penetration rate (apparent flux), prodrug compounds [8]: 80 μg/cm^2/h; Blood glucose, Average [9]: 9.4 ± 1 mmol/L; Blood glucose, Baseline [9]: 26.5 ± 4 mmol/L; Cholesterol (HDL), Baseline [10]: 1.5 ± 0.1 mmol/L; Cholesterol (total), Baseline [10]: 7.9 ± 0.5 mmol/L; Triglycerides, Baseline [10]: 5.8 ± 0.6 mmol/L; Cholesterol (HDL), Average [10]: 1.4 ± 0.2 mmol/L; Cholesterol (total), Average [10]: 5.6 ± 0.4 mmol/L; Triglycerides, Average [10]: 2.7 ± 0.2 mmol/L; % (rate of writhing inhibition) ([11]; 50 mg/kg transdermally): 59%; No. of Writhing ([11]; 50 mg/kg transdermally): 14.2; % (rate of writhing inhibition) ([11]; 100 mg/kg transdermally): 65%; No. of Writhing ([11]; 100 mg/kg transdermally): 12.0; analgesic activity, prolongation time of pain threshold of mice tails [12]: stronger analgesic activity; Blood glucose, Diabetic rats, Average [13]: 7.6 ± 1 mmol/L; Blood glucose, Diabetic rats, Baseline [13]: 16.5 ± 4 mmol/L"
